Assay results: ChEMBL document CHEMBL3769401, “The first potent diphenyl phosphonate KLK4 inhibitors with unexpected binding kinetics” (Medchemcomm, 2015)
The source made the active and inactive calls. The calls are words filed in the database; no cut-off is given here.

What was measured:
Kallikrein-2 = target: T1, Kallikrein-2 (Homo sapiens, UniProt P20151); assay: Inhibition of human recombinant KLK2 expressed in Escherichia coli using Bachem I-1295 as substrate preincubated for 15 mins followed by substrate addition by microplate reader analysis
T1 sequence (P20151 whole entry): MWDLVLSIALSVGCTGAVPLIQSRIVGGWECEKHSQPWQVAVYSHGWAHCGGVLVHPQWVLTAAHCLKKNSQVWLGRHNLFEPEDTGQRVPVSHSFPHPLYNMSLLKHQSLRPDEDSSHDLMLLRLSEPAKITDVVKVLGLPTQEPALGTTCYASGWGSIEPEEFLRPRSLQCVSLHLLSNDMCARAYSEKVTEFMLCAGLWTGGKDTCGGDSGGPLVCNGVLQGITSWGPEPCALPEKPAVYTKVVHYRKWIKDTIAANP

[1] = target: T2, Kallikrein-8 (Homo sapiens) (UniProt O60259); assay: Reversible inhibition of human recombinant KLK8 expressed in Escherichia coli using Boc-Val-Pro-Arg-AMC as fluorogenic substrate at 100 times IC50 preincubated for 15 mins followed by 100 fold dilution measured for 1 hr
T2 sequence (whole entry): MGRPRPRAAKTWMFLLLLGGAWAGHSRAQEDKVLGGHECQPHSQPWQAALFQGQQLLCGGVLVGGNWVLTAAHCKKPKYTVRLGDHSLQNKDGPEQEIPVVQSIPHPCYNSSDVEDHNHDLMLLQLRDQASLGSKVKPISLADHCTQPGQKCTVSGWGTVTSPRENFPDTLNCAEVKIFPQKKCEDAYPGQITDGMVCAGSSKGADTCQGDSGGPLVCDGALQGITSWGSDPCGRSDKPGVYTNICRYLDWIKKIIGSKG

[2] = target: Tissue-type plasminogen activator (Homo sapiens, UniProt P00750); assay: Inhibition of recombinant tPA (unknown origin) using Biophen CS-05(88) as substrate
Kallikrein-4 [3] = target: T3, Kallikrein-4 (Homo sapiens, UniProt Q9Y5K2); assay: Reversible inhibition of human recombinant KLK4 expressed in Escherichia coli using Bachem I-1120 as fluorogenic substrate at 100 times IC50 preincubated for 15 mins followed by 100 fold dilution measured for 1 hr by microplate reader analysis
Acetylcholinesterase = Acetylcholinesterase (Electrophorus electricus, UniProt O42275); assay: Inhibition of Electrophorus electricus AChE using acetylthiocholine iodide as substrate by 5-5'-Dithiobis(2 nitrobenzoic acid)-based assay
Kallikrein-8 = target: T4, Kallikrein-8 (Homo sapiens, UniProt O60259); assay: Inhibition of human recombinant KLK8 expressed in Escherichia coli using Bachem I-1120 as substrate preincubated for 15 mins followed by substrate addition by microplate reader analysis
T4 sequence (O60259 whole entry): T2 sequence (whole entry)

[4] = target: T5, Kallikrein-2 (Homo sapiens) (UniProt P20151); assay: Irreversible inhibition of human recombinant KLK2 expressed in Escherichia coli using H-Pro-Phe-Arg-AMC as fluorogenic substrate at 100 times IC50 preincubated for 15 mins followed by 100 fold dilution measured for 1 hr
T5 sequence (whole entry): T1 sequence (P20151 whole entry)

Plasminogen = Plasminogen (Homo sapiens, UniProt P00747); assay: Inhibition of human plasma plasmin using Biophen CS-21(66) as substrate; assay type: cell-free
Coagulation factor X = Coagulation factor X (Homo sapiens, UniProt P00742); assay: Inhibition of factor 10a (unknown origin) using Biophen CS-11(32) as substrate
[5] = target: Urokinase-type plasminogen activator (Homo sapiens, UniProt P00749); assay: Inhibition of recombinant uPA (unknown origin) using Biophen CS-61(44) as substrate
Kallikrein-1 [6] = target: T6, Kallikrein-1 (Homo sapiens, UniProt P06870); assay: Inhibition of human recombinant KLK1 expressed in Escherichia coli using Bachem I-1295 as substrate preincubated for 15 mins followed by substrate addition by microplate reader analysis
Target sequence in this assay (P06870 whole entry): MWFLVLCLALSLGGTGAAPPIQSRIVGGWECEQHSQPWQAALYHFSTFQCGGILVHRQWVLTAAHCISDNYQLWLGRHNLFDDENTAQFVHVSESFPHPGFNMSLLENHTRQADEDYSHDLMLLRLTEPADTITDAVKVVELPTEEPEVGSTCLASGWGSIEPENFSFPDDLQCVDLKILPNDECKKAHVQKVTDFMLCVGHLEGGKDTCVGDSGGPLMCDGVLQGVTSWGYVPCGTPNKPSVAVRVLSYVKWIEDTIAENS

Kallikrein-4 [7] = target: T3, Kallikrein-4; assay: Inhibition of human recombinant KLK4 expressed in Escherichia coli using Bachem I-1120 as substrate preincubated for 15 mins followed by substrate addition by microplate reader analysis
Prothrombin [8] = target: T7, Prothrombin (Homo sapiens, UniProt P00734); assay: Inhibition of human plasma thrombin using Biophen CS-21(66) as substrate preincubated for 15 mins followed by substrate addition by microplate reader analysis; assay type: cell-free
[9] = target: T5, Kallikrein-2 (Homo sapiens); assay: Reversible inhibition of human recombinant KLK2 expressed in Escherichia coli using H-Pro-Phe-Arg-AMC as fluorogenic substrate at 100 times IC50 preincubated for 15 mins followed by 100 fold dilution measured for 1 hr
Kallikrein-1 [10] = target: T6, Kallikrein-1; assay: Irreversible inhibition of human recombinant KLK1 expressed in Escherichia coli using H-Pro-Phe-Arg-AMC as fluorogenic substrate at 100 times IC50 preincubated for 15 mins followed by 100 fold dilution measured for 1 hr
Target sequence in this assay (P06870 25-262 limits assumed): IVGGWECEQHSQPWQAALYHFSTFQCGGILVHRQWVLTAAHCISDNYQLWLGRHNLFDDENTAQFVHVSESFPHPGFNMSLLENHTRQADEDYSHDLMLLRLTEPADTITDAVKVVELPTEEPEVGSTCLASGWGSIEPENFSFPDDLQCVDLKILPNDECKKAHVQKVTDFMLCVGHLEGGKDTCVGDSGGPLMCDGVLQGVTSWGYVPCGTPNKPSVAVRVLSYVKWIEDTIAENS

Prothrombin [11] = target: T7, Prothrombin; assay: Reversible inhibition of human thrombin using Biophen CS-21(66) as substrate at 100 times IC50 preincubated for 15 mins followed by 100 fold dilution measured for 1 hr
[12] = target: T2, Kallikrein-8 (Homo sapiens); assay: Irreversible inhibition of human recombinant KLK8 expressed in Escherichia coli using Boc-Val-Pro-Arg-AMC as fluorogenic substrate at 100 times IC50 preincubated for 15 mins followed by 100 fold dilution measured for 1 hr
Homo sapiens [13] = species on record: Homo sapiens; assay: Selectivity ratio of IC50 for human plasma plasmin to IC50 for human recombinant KLK4
Homo sapiens [14] = species on record: Homo sapiens; assay: Selectivity ratio of IC50 for human plasma thrombin to IC50 for human recombinant KLK4
Homo sapiens [15] = species on record: Homo sapiens; assay: Selectivity ratio of IC50 for factor 10a (unknown origin) to IC50 for human recombinant KLK4
[16] = Selectivity ratio of IC50 for Electrophorus electricus AChE to IC50 for human recombinant KLK4
Homo sapiens [17] = species on record: Homo sapiens; assay: Selectivity ratio of IC50 for human recombinant KLK2 to IC50 for human recombinant KLK4
Homo sapiens [18] = species on record: Homo sapiens; assay: Selectivity ratio of IC50 for human recombinant KLK1 to IC50 for human recombinant KLK4
Kallikrein-1 [19] = target: T6, Kallikrein-1; assay: Reversible inhibition of human recombinant KLK1 expressed in Escherichia coli using H-Pro-Phe-Arg-AMC as fluorogenic substrate at 100 times IC50 preincubated for 15 mins followed by 100 fold dilution measured for 1 hr
Target sequence in this assay (P06870 25-262 limits assumed): as above

Homo sapiens [20] = species on record: Homo sapiens; assay: Selectivity ratio of IC50 for recombinant uPA (unknown origin) to IC50 for human recombinant KLK4
Homo sapiens [21] = species on record: Homo sapiens; assay: Selectivity ratio of IC50 for recombinant tPA (unknown origin) to IC50 for human recombinant KLK4
Homo sapiens [22] = species on record: Homo sapiens; assay: Selectivity ratio of IC50 for human recombinant KLK8 to IC50 for human recombinant KLK4
[23] = target: T8, Subtilisin Carlsberg (Bacillus licheniformis) (UniProt P00780); assay: Inhibition of Bacillus licheniformis subtilisin using Suc-Ala-Ala-Pro-Phe-AMC as substrate by spectrofluorometry
T8 sequence (whole entry): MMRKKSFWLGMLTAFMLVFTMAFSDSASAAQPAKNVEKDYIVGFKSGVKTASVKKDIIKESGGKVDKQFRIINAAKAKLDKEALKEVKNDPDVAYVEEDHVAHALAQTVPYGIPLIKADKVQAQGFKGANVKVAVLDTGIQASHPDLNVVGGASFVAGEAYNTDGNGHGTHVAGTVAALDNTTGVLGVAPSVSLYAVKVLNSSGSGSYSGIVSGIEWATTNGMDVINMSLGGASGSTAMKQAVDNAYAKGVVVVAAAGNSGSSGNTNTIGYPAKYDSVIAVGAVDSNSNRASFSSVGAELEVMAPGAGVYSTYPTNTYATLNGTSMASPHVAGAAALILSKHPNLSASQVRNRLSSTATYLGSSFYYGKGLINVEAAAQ

Plasminogen, sequence (P00747 97-580 limits assumed): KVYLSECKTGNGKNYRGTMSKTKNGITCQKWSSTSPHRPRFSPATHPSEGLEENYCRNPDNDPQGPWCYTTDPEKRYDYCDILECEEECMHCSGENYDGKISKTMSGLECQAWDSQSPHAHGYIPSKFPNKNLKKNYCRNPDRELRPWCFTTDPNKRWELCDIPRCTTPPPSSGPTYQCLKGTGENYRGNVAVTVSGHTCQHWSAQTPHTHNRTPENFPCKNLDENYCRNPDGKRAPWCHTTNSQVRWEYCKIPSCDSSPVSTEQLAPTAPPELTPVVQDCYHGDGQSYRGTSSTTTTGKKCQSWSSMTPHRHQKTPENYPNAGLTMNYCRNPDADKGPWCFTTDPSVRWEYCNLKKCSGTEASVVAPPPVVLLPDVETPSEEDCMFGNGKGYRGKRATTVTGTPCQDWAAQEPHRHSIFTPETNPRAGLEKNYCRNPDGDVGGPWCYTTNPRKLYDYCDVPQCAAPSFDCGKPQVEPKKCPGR
Plasminogen, sequence (P00747 581-810 limits assumed): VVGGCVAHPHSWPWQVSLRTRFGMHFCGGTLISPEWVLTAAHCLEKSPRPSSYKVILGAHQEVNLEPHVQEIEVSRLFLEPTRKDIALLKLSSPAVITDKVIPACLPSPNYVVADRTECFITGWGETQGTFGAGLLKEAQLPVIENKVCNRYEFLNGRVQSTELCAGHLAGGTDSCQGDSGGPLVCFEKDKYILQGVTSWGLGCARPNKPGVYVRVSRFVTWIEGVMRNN
Tissue-type plasminogen activator, sequence (P00750 whole entry): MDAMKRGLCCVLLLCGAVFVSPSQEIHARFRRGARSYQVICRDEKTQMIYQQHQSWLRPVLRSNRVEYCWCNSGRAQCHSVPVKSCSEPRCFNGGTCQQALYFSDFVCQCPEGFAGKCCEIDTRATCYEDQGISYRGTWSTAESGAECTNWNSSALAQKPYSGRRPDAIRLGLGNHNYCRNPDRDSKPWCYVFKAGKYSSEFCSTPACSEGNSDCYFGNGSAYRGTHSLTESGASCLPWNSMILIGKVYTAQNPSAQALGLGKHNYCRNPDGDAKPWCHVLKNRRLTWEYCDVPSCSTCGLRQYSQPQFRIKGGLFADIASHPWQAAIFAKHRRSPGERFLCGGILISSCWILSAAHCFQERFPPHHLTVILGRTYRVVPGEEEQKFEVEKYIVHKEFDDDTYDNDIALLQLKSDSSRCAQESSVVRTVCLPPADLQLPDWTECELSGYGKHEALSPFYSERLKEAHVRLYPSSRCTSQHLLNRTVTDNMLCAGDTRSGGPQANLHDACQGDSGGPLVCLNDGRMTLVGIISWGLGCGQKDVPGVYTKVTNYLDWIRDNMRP
T3 sequence (Q9Y5K2 whole entry): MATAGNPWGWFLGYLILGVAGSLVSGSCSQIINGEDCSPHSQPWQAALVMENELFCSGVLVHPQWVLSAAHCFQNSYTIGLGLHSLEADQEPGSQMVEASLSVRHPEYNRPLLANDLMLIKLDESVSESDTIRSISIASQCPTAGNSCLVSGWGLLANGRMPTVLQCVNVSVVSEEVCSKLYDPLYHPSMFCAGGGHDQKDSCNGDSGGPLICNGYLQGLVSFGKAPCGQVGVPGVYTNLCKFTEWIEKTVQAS
Acetylcholinesterase, sequence (O42275 whole entry): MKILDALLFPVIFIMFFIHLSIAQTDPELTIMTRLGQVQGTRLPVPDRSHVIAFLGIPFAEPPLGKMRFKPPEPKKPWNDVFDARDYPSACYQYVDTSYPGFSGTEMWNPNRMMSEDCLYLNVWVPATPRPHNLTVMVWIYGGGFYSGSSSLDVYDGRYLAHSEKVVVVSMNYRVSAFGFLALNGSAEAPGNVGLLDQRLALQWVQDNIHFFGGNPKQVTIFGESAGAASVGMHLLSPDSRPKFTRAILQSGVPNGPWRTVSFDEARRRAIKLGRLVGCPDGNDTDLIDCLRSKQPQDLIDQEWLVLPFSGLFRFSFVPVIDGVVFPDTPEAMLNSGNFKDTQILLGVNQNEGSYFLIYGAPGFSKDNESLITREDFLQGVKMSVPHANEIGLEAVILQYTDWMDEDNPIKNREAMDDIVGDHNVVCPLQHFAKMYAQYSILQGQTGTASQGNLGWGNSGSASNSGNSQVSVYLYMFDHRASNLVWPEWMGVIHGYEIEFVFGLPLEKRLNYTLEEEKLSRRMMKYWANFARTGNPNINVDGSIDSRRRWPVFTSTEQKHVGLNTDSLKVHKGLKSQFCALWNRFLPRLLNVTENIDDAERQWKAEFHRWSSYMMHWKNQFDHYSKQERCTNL
Coagulation factor X, sequence (P00742 41-179 limits assumed): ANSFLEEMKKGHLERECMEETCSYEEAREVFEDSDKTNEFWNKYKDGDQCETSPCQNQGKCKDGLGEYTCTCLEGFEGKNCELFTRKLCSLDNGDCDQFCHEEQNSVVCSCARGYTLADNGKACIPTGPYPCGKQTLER
Coagulation factor X, sequence (P00742 235-488 limits assumed): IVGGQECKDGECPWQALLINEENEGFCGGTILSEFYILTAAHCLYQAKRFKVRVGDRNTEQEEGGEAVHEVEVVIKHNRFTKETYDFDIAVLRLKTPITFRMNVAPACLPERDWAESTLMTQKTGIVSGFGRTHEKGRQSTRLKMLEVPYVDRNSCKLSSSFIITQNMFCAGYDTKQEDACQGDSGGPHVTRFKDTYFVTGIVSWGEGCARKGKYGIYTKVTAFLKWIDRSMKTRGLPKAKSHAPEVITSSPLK

Compound | IC50 (Kallikrein-2) | IC50 [2] | reversible inhibition (activity call) (Kallikrein-4 [3]) | IC50 (Acetylcholinesterase) | IC50 (Kallikrein-8) | IC50 (Plasminogen) | IC50 (Coagulation factor X) | IC50 [5] | IC50 (Kallikrein-1 [6]) | IC50 (Kallikrein-4 [7]) | IC50 (Prothrombin [8]) | also measured
N=C(N)Nc1ccc(CP(=O)(Oc2ccccc2)Oc2ccccc2)cc1 | 2440 nM | > 10000 nM | Active | > 10000 nM | 1440 nM | > 10000 nM | > 10000 nM | 1400 nM | > 2500 nM | 250 nM | > 10000 nM | inhibition [1]: Active; inhibition [4]: Active
N=C(N)c1ccc(CCC(NC(=O)OCc2ccccc2)P(=O)(Oc2ccccc2)Oc2ccccc2)cc1 (stereo not given) | 720 nM |  | Active | > 20000 nM | 5000 nM |  |  |  | 1370 nM | 15 nM |  | inhibition [9]: Active
O=C(NC(c1ccc(O)cc1)P(=O)(Oc1ccccc1)Oc1ccccc1)OCc1ccccc1 (stereo not given) | > 2500 nM | > 10000 nM |  | > 10000 nM | > 10000 nM | > 10000 nM | > 10000 nM | > 10000 nM | 86 nM | > 10000 nM | > 10000 nM | inhibition (Kallikrein-1 [10]): Active
N=C(N)Nc1ccc(CCP(=O)(Oc2ccccc2)Oc2ccccc2)cc1 | 3020 nM | > 10000 nM | Active | > 10000 nM | 170 nM | > 10000 nM | > 10000 nM | 7.9 nM | > 2500 nM | 80 nM | > 10000 nM | inhibition [1]: Active; inhibition [4]: Active
N=C(N)c1ccc(C(NC(=O)OCc2ccccc2)P(=O)(Oc2ccccc2)Oc2ccccc2)cc1 (stereo not given) | > 2500 nM | > 2500 nM | Active | > 10000 nM | 790 nM | > 2500 nM | > 2500 nM |  | > 2500 nM | 41 nM | 196 nM | inhibition (Prothrombin [11]): Active; inhibition [12]: Active
Nc1ccc(C(NC(=O)OCc2ccccc2)P(=O)(Oc2ccccc2)Oc2ccccc2)cc1 (stereo not given) | > 2500 nM | > 10000 nM |  | > 10000 nM | > 10000 nM | > 10000 nM | > 10000 nM | > 10000 nM | > 10000 nM | > 10000 nM | > 10000 nM | 
Nc1ccc(CC(NC(=O)OCc2ccccc2)P(=O)(Oc2ccccc2)Oc2ccccc2)cc1 (stereo not given) | > 10000 nM | 32000 nM |  |  | > 10000 nM |  | > 10000 nM | 19800 nM | > 10000 nM | > 10000 nM | 62000 nM | 
N=C(N)Nc1ccc(C(NC(=O)OCc2ccccc2)P(=O)(Oc2ccccc2)Oc2ccccc2)cc1 (stereo not given) | 220 nM | 250000 nM | Active | > 10000 nM | 1160 nM | 4900 nM | 3600 nM | 2700 nM | 240 nM | 3.4 nM | 250000 nM | inhibition [9]: Active; Ratio IC50 (Homo sapiens [13]): > 300; Ratio IC50 (Homo sapiens [14]): > 300; Ratio IC50 (Homo sapiens [15]): > 300; Ratio IC50 [16]: > 300; Ratio IC50 (Homo sapiens [17]): 70; Ratio IC50 (Homo sapiens [18]): 70; inhibition (Kallikrein-1 [19]): Active; Ratio IC50 (Homo sapiens [20]): > 300; Ratio IC50 (Homo sapiens [21]): > 300; Ratio IC50 (Homo sapiens [22]): > 300
NCCCC(NC(=O)OCc1ccccc1)P(=O)(Oc1ccccc1)Oc1ccccc1 (stereo not given) | > 2500 nM | > 2500 nM |  | > 10000 nM | > 10000 nM | > 250000 nM | > 250000 nM | > 250000 nM | > 10000 nM | > 2500 nM | > 2500 nM | 
CC(C)[C@H](NC(=O)OC(C)(C)C)C(=O)N1CCC[C@H]1C(=O)N[C@H](Cc1ccccc1)P(=O)(Oc1ccc(CS)cc1)Oc1ccc(CS)cc1 |  |  |  |  |  |  |  |  |  |  |  | Kapp [23]: 1 ×10⁵ /M/s
N=C(N)Nc1ccc(CC(NC(=O)OCc2ccccc2)P(=O)(Oc2ccccc2)Oc2ccccc2)cc1 (stereo not given) | 530 nM |  | Active | > 20000 nM | 170 nM |  | > 10000 nM |  | > 10000 nM |  |  | inhibition [9]: Active; inhibition [1]: Active; inhibition (Prothrombin [11]): Active
N=C(N)NCCCC(NC(=O)OCc1ccccc1)P(=O)(Oc1ccccc1)Oc1ccccc1 (stereo not given) | > 2500 nM |  | Active | > 10000 nM | 125 nM |  | > 10000 nM |  | 820 nM | 40 nM | 800 nM | inhibition (Prothrombin [11]): Active
